From ChEMBL document CHEMBL1137169, “P4 cap modified tetrapeptidyl alpha-ketoamides as potent HCV NS3 protease inhibitors” (Bioorg Med Chem Lett, 2004)

Key:
NS3 = NS3 (Hepatitis C virus, UniProt A3EZJ3); test: Inhibitory potency against HCV NS3 protease; parameters: species or system Hepacivirus hominis
Cell line = test: inhibitory concentration in luciferase based replicon assay; type: functional; settings: Homo sapiens
Huh-7 = test: Cytotoxic concentration against Huh-7 liver cell line; type: functional; settings: Homo sapiens
[1] = molecular target: T1, Neutrophil elastase (Homo sapiens) (UniProt P08246); test: Selectivity for human neutrophil elastase
T1 sequence (whole entry): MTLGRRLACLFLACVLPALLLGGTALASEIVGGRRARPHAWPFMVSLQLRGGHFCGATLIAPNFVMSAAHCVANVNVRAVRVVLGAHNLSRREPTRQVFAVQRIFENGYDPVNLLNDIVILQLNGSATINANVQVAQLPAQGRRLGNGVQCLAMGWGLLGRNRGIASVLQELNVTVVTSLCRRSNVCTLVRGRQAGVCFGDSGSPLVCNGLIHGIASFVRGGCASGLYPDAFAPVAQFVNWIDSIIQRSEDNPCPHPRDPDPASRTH

Sequence of NS3 (A3EZJ3 whole entry): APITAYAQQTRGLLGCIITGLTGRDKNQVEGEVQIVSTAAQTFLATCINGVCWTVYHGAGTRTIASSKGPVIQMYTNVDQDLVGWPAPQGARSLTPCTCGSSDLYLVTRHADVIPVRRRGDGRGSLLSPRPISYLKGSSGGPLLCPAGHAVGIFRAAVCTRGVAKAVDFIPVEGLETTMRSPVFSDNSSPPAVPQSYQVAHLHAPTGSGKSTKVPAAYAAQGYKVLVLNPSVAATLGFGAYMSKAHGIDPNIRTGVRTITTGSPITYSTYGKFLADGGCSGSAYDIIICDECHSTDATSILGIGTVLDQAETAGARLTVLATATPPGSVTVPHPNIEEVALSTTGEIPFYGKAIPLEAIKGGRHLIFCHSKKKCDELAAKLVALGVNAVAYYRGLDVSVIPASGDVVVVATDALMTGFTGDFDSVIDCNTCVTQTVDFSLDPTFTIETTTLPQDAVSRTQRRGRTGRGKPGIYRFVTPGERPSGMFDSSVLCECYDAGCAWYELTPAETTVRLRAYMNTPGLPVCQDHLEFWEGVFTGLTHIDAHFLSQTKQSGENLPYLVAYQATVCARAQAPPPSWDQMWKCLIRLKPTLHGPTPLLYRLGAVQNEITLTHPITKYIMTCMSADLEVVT

| SMILES | Ki (NS3) | IC50 (Cell line) | Selectivity [1] | CC50 (Huh-7) |
| --- | --- | --- | --- | --- |
| CCCC(NC(=O)[C@@H]1CC(OC(=O)N2CCc3ccccc3C2)CN1C(=O)[C@@H](NC(=O)[C@@H](NC(=O)CCCCC(=O)OC)C(C)C)C(C)C)C(=O)C(=O)NC1CC1 (some centres undefined) | 271 nM | – | – | – |
| CCC[C@H](NC(=O)[C@@H]1C2CCCC2CN1C(=O)[C@@H](NC(=O)[C@@H](NC(=O)Cc1nn[nH]n1)C(C)C)C(C)(C)C)C(=O)C(=O)NC1CC1 (some centres undefined) | 808 nM | – | – | – |
| CCCC(NC(=O)[C@@H]1C2CCCC2CN1C(=O)[C@@H](NC(=O)[C@@H](NC(=O)CCCCc1nnn[nH]1)C(C)C)C(C)C)C(=O)C(=O)NC(C)CC (some centres undefined) | 248 nM | > 50000 nM | – | > 50000 nM |
| CCCC(NC(=O)[C@@H]1C2CCCC2CN1C(=O)[C@@H](NC(=O)[C@@H](NC(=O)CCCCc1nnn[nH]1)C(C)C)C(C)C)C(=O)C(=O)N[C@@H](C)c1ccncc1 (some centres undefined) | 112 nM | – | – | – |
| CCCC(NC(=O)[C@@H]1C2CCCC2CN1C(=O)[C@@H](NC(=O)[C@@H](NC(=O)CCCCc1nnn[nH]1)C(C)C)C(C)C)C(=O)C(=O)N[C@@H](C)c1ccccc1 (stereo in doubt; 13) | 27 nM | – | – | – |
| CCC[C@H](NC(=O)[C@@H]1C2CCCC2CN1C(=O)[C@@H](NC(=O)[C@@H](NC(=O)Cc1nn[nH]n1)[C@@H](C)CC)C(C)(C)C)C(=O)C(=O)NC1CC1 (some centres undefined) | 3110 nM | > 50000 nM | – | > 50000 nM |
| CCC[C@H](NC(=O)[C@@H]1C2CCCC2CN1C(=O)[C@@H](NC(=O)[C@@H](NC(=O)CCCCc1nnn[nH]1)C(C)C)C(C)C)C(=O)C(=O)NC1CC1 (some centres undefined) | – | > 50000 nM | 7 | > 50000 nM |
| CCCC(NC(=O)[C@@H]1CC(OC(=O)N2CCc3ccccc3C2)CN1C(=O)[C@@H](NC(=O)[C@@H](NC(=O)CCCCC(=O)O)C(C)C)C(C)C)C(=O)C(=O)NC1CC1 (some centres undefined) | 65 nM | > 50000 nM | – | > 50000 nM |
| CCC[C@H](NC(=O)[C@@H]1C2CCCC2CN1C(=O)[C@@H](NC(=O)[C@@H](NC(=O)c1cnccn1)C(C)C)C(C)C)C(=O)C(=O)NC1CC1 (some centres undefined) | 123 nM | 11600 nM | – | > 50000 nM |
| CCCC(NC(=O)[C@@H]1CC(OC(=O)N2CCc3ccccc3C2)CN1C(=O)[C@@H](NC(=O)[C@@H](NC(=O)CCCCC(=O)NC)C(C)C)C(C)C)C(=O)C(=O)NC1CC1 (some centres undefined) | 193 nM | – | 4 | > 10000 nM |
| CCC[C@H](NC(=O)[C@@H]1C2CCCC2CN1C(=O)[C@@H](NC(=O)[C@@H](NC(=O)CCCCc1nn[nH]n1)C(C)C)C(C)C)C(=O)C(=O)NC1CC1 (some centres undefined) | 170 nM | – | – | – |

Further lines, with some results ahead:

| Ki (NS3) | IC50 (Cell line) | Selectivity [1] | SMILES | CC50 (Huh-7) |
| --- | --- | --- | --- | --- |
| 82 nM | – | – | CCC[C@H](NC(=O)[C@@H]1C2CCCC2CN1C(=O)[C@@H](NC(=O)[C@@H](NC(=O)CCCCc1nn[nH]n1)C(C)C)C(C)C)C(=O)C(=O)NC(=O)CN (some centres undefined) | – |
| 31 nM | > 50000 nM | – | CCCC(NC(=O)[C@@H]1C2CCCC2CN1C(=O)[C@@H](NC(=O)[C@@H](NC(=O)CCCCc1nnn[nH]1)C(C)C)C(C)C)C(=O)C(=O)N[C@@H](C)c1ccccc1 (stereo in doubt; 12) | > 50000 nM |
| 30 nM | > 50000 nM | – | CCCC(NC(=O)[C@@H]1C2CCCC2CN1C(=O)[C@@H](NC(=O)[C@@H](NC(=O)Cc1nn[nH]n1)C1CCCCC1)C(C)(C)C)C(=O)C(=O)NC1CC1 (some centres undefined) | > 50000 nM |
| 22 nM | – | 1180 | CCCC(NC(=O)[C@@H]1C2CCCC2CN1C(=O)[C@@H](NC(=O)[C@@H](NC(=O)CCCCc1nnn[nH]1)C(C)C)C(C)C)C(=O)C(=O)Nc1ccccc1 (some centres undefined) | > 10000 nM |
| 110 nM | – | – | CCC(C=O)NC(=O)[C@@H]1CC(OC(=O)c2ccc3ccccc3c2)CN1C(=O)[C@@H](NC(=O)[C@@H](NC(=O)CCCCC(=O)O)C(C)C)C(C)C (some centres undefined) | – |
